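Interpolation was linear, between the two tested concentrations surrounding the appropriate level; five concentrations were tested over 48 hours in 96-well plates. GI50 = concentration required for 50% inhibition of growth. The concentration for full growth arrest is given as TGI.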
Key:
Assay in all cases: NCI anticancer screen, dose series, 48 h
HOP-62 NSCLC = test system: HOP-62 NSCLC
SNB-75 CNS = test system: SNB-75 CNS
RPMI-8226 leukemia = test system: RPMI-8226 leukemia
SF-268 CNS = test system: SF-268 CNS
SF-295 CNS = test system: SF-295 CNS
SN12C renal = test system: SN12C renal
U251 CNS = test system: U251 CNS
ACHN renal = test system: ACHN renal
SK-MEL-28 melanoma = test system: SK-MEL-28 melanoma
NCI-H23 lung = test system: NCI-H23 lung
M14 melanoma = test system: M14 melanoma
SNB-19 CNS = test system: SNB-19 CNS
MDA-MB-435 = test system: MDA-MB-435
CAKI-1 renal = test system: CAKI-1 renal
HT29 colon = test system: HT29 colon
LOX IMVI melanoma = test system: LOX IMVI melanoma
COLO 205 colon = test system: COLO 205 colon
OVCAR-8 ovarian = test system: OVCAR-8 ovarian
OVCAR-4 ovarian = test system: OVCAR-4 ovarian
A498 renal = test system: A498 renal
CCRF-CEM leukemia = test system: CCRF-CEM leukemia
NCI/ADR-RES ovarian = test system: NCI/ADR-RES ovarian
SK-MEL-5 melanoma = test system: SK-MEL-5 melanoma
HCT-15 colon = test system: HCT-15 colon
NCI-H522 lung = test system: NCI-H522 lung
MDA-MB-231 breast = test system: MDA-MB-231 breast
K-562 leukemia = test system: K-562 leukemia
SR leukemia = test system: SR leukemia
SK-OV-3 ovarian = test system: SK-OV-3 ovarian
BT-549 breast = test system: BT-549 breast
HOP-92 NSCLC = test system: HOP-92 NSCLC
T-47D breast = test system: T-47D breast
DU-145 prostate = test system: DU-145 prostate
IGROV1 ovarian = test system: IGROV1 ovarian
TK-10 renal = test system: TK-10 renal
EKVX NSCLC = test system: EKVX NSCLC
HCC-2998 colon = test system: HCC-2998 colon
NCI-H226 lung = test system: NCI-H226 lung
UO-31 renal = test system: UO-31 renal
UACC-62 melanoma = test system: UACC-62 melanoma
SW-620 colon = test system: SW-620 colon
HS 578T breast = test system: HS 578T breast
786-0 renal = test system: 786-0 renal
MOLT-4 leukemia = test system: MOLT-4 leukemia
OVCAR-5 ovarian = test system: OVCAR-5 ovarian
MCF7 breast = test system: MCF7 breast
KM12 colon = test system: KM12 colon
SF-539 CNS = test system: SF-539 CNS
UACC-257 melanoma = test system: UACC-257 melanoma
HCT-116 colon = test system: HCT-116 colon
OVCAR-3 ovarian = test system: OVCAR-3 ovarian
RXF 393 renal = test system: RXF 393 renal
HL-60(TB) leukemia = test system: HL-60(TB) leukemia
MALME-3M melanoma = test system: MALME-3M melanoma
SK-MEL-2 melanoma = test system: SK-MEL-2 melanoma
A549 NSCLC = test system: A549 NSCLC
PC-3 prostate = test system: PC-3 prostate
NCI-H460 lung = test system: NCI-H460 lung

C=CC[C@@H]1C=C[C@@H](C(=O)OC)n2c(=O)n(-c3ccccc3)c(=O)n21
TGI (HOP-62 NSCLC): > 100 µM
TGI (SNB-75 CNS): > 100 µM
TGI (RPMI-8226 leukemia): > 100 µM
TGI (SF-268 CNS): > 100 µM
TGI (SF-295 CNS): > 100 µM
TGI (SN12C renal): > 100 µM
TGI (U251 CNS): > 100 µM
TGI (ACHN renal): > 100 µM
TGI (SK-MEL-28 melanoma): > 100 µM
TGI (NCI-H23 lung): > 100 µM
TGI (M14 melanoma): > 100 µM
TGI (SNB-19 CNS): > 100 µM
TGI (MDA-MB-435): > 100 µM
TGI (CAKI-1 renal): > 100 µM
TGI (HT29 colon): > 100 µM
TGI (LOX IMVI melanoma): > 100 µM
TGI (COLO 205 colon): > 100 µM
TGI (OVCAR-8 ovarian): > 100 µM
TGI (OVCAR-4 ovarian): > 100 µM
TGI (A498 renal): > 100 µM
TGI (CCRF-CEM leukemia): > 100 µM
TGI (NCI/ADR-RES ovarian): > 100 µM
TGI (SK-MEL-5 melanoma): > 100 µM
TGI (HCT-15 colon): > 100 µM
TGI (NCI-H522 lung): > 100 µM
TGI (MDA-MB-231 breast): > 100 µM
TGI (K-562 leukemia): > 100 µM
TGI (SR leukemia): > 100 µM
TGI (SK-OV-3 ovarian): > 100 µM
TGI (BT-549 breast): > 100 µM
TGI (HOP-92 NSCLC): > 100 µM
TGI (T-47D breast): > 100 µM
TGI (DU-145 prostate): > 100 µM
TGI (IGROV1 ovarian): > 100 µM
TGI (TK-10 renal): > 100 µM
TGI (EKVX NSCLC): > 100 µM
TGI (HCC-2998 colon): > 100 µM
TGI (NCI-H226 lung): > 100 µM
TGI (UO-31 renal): > 100 µM
TGI (UACC-62 melanoma): > 100 µM
TGI (SW-620 colon): > 100 µM
TGI (HS 578T breast): > 100 µM
TGI (786-0 renal): > 100 µM
TGI (MOLT-4 leukemia): > 100 µM
TGI (OVCAR-5 ovarian): > 100 µM
TGI (MCF7 breast): > 100 µM
TGI (KM12 colon): > 100 µM
TGI (SF-539 CNS): > 100 µM
TGI (UACC-257 melanoma): > 100 µM
TGI (HCT-116 colon): > 100 µM
TGI (OVCAR-3 ovarian): > 100 µM

CCOc1ccc2nc(-c3cccc(OCC(=O)NC(C)C)c3)nc(Nc3ccc(-c4cn[nH]c4)cc3)c2c1
GI50 (HOP-62 NSCLC): 0.399 µM
TGI (HOP-62 NSCLC): 2.22 µM
GI50 (SNB-75 CNS): 1.16 µM
TGI (SNB-75 CNS): 2.48 µM
GI50 (RXF 393 renal): 0.401 µM
TGI (RXF 393 renal): 2.16 µM
GI50 (RPMI-8226 leukemia): 0.232 µM
TGI (RPMI-8226 leukemia): 4.9 µM
GI50 (SF-268 CNS): 1.35 µM
TGI (SF-268 CNS): 7 µM
GI50 (SF-295 CNS): 0.711 µM
TGI (SF-295 CNS): 3.01 µM
GI50 (SN12C renal): 1.06 µM
TGI (SN12C renal): 3.76 µM
GI50 (U251 CNS): 0.431 µM
TGI (U251 CNS): 2.15 µM
GI50 (ACHN renal): 0.675 µM
TGI (ACHN renal): 2.96 µM
GI50 (SK-MEL-28 melanoma): 1.13 µM
TGI (SK-MEL-28 melanoma): 3 µM
GI50 (NCI-H23 lung): 1.29 µM
TGI (NCI-H23 lung): 10.2 µM
GI50 (HL-60(TB) leukemia): 0.661 µM
TGI (HL-60(TB) leukemia): 3.41 µM
GI50 (M14 melanoma): 1.22 µM
TGI (M14 melanoma): 10.5 µM
GI50 (SNB-19 CNS): 0.598 µM
TGI (SNB-19 CNS): 3.76 µM
GI50 (MDA-MB-435): 0.485 µM
TGI (MDA-MB-435): 3.81 µM
GI50 (MALME-3M melanoma): 0.324 µM
TGI (MALME-3M melanoma): 1.79 µM
GI50 (CAKI-1 renal): 0.968 µM
TGI (CAKI-1 renal): 3.87 µM
GI50 (HT29 colon): 0.751 µM
TGI (HT29 colon): 5.09 µM
GI50 (LOX IMVI melanoma): 0.491 µM
TGI (LOX IMVI melanoma): 2.33 µM
GI50 (COLO 205 colon): 0.686 µM
TGI (COLO 205 colon): 5.4 µM
GI50 (OVCAR-8 ovarian): 0.586 µM
TGI (OVCAR-8 ovarian): 4.76 µM
GI50 (OVCAR-4 ovarian): 1.53 µM
TGI (OVCAR-4 ovarian): 3.52 µM
GI50 (A498 renal): 2.54 µM
TGI (A498 renal): 9.85 µM
GI50 (CCRF-CEM leukemia): 0.315 µM
TGI (CCRF-CEM leukemia): > 51.6 µM
GI50 (NCI/ADR-RES ovarian): 1.92 µM
TGI (NCI/ADR-RES ovarian): 22.9 µM
GI50 (SK-MEL-5 melanoma): 1.17 µM
TGI (SK-MEL-5 melanoma): 2.58 µM
GI50 (SK-MEL-2 melanoma): 1.56 µM
TGI (SK-MEL-2 melanoma): 5.31 µM
GI50 (HCT-15 colon): 0.834 µM
TGI (HCT-15 colon): 3.69 µM
GI50 (NCI-H522 lung): 0.62 µM
TGI (NCI-H522 lung): 3.33 µM
GI50 (MDA-MB-231 breast): 1.68 µM
TGI (MDA-MB-231 breast): 10.7 µM
GI50 (K-562 leukemia): 0.454 µM
GI50 (SR leukemia): 1.13 µM
TGI (SR leukemia): > 43 µM
GI50 (SK-OV-3 ovarian): 4.53 µM
TGI (SK-OV-3 ovarian): 13 µM
GI50 (A549 NSCLC): 0.769 µM
TGI (A549 NSCLC): 3.54 µM
GI50 (PC-3 prostate): 0.348 µM
TGI (PC-3 prostate): 2 µM
GI50 (HOP-92 NSCLC): 0.452 µM
TGI (HOP-92 NSCLC): 3.29 µM
GI50 (T-47D breast): 0.292 µM
TGI (T-47D breast): 3.57 µM
GI50 (DU-145 prostate): 0.403 µM
TGI (DU-145 prostate): 2.91 µM
GI50 (IGROV1 ovarian): 0.927 µM
TGI (IGROV1 ovarian): 7.4 µM
GI50 (TK-10 renal): 1.89 µM
TGI (TK-10 renal): 5.2 µM
GI50 (EKVX NSCLC): 1.22 µM
TGI (EKVX NSCLC): 8.34 µM
GI50 (HCC-2998 colon): 1.45 µM
TGI (HCC-2998 colon): 7.91 µM
GI50 (NCI-H460 lung): 0.34 µM
TGI (NCI-H460 lung): 1.66 µM
GI50 (NCI-H226 lung): 0.783 µM
TGI (NCI-H226 lung): 3.19 µM
GI50 (UO-31 renal): 0.344 µM
TGI (UO-31 renal): 3.51 µM
GI50 (UACC-62 melanoma): 1.21 µM
TGI (UACC-62 melanoma): 4.16 µM
GI50 (SW-620 colon): 1.35 µM
TGI (SW-620 colon): 5.99 µM
GI50 (HS 578T breast): 0.132 µM
TGI (HS 578T breast): 1.72 µM
GI50 (786-0 renal): 0.553 µM
TGI (786-0 renal): 2.63 µM
GI50 (MOLT-4 leukemia): 0.319 µM
TGI (MOLT-4 leukemia): > 31.9 µM
GI50 (OVCAR-5 ovarian): 3.3 µM
TGI (OVCAR-5 ovarian): 21.9 µM
GI50 (MCF7 breast): 0.348 µM
TGI (MCF7 breast): 2.11 µM
GI50 (KM12 colon): 0.527 µM
TGI (KM12 colon): 6.9 µM
GI50 (SF-539 CNS): 1.25 µM
TGI (SF-539 CNS): 2.67 µM
GI50 (UACC-257 melanoma): 1.79 µM
TGI (UACC-257 melanoma): 4.12 µM
GI50 (HCT-116 colon): 0.783 µM
TGI (HCT-116 colon): 3.18 µM
GI50 (OVCAR-3 ovarian): 1.34 µM
TGI (OVCAR-3 ovarian): 3.12 µM

Cc1cc(Nc2ccc(F)cc2)nc(N2CCN(c3ccnc4cc(Cl)ccc34)CC2)n1
GI50 (HOP-62 NSCLC): 4.06 µM
TGI (HOP-62 NSCLC): > 100 µM
GI50 (RPMI-8226 leukemia): 2.25 µM
TGI (RPMI-8226 leukemia): > 100 µM
GI50 (ACHN renal): 2.84 µM
TGI (ACHN renal): > 100 µM
GI50 (HT29 colon): 2.96 µM
TGI (HT29 colon): > 100 µM
GI50 (LOX IMVI melanoma): 2.94 µM
TGI (LOX IMVI melanoma): > 100 µM
GI50 (COLO 205 colon): 1.8 µM
TGI (COLO 205 colon): 4.39 µM
GI50 (CCRF-CEM leukemia): 2.99 µM
TGI (CCRF-CEM leukemia): > 100 µM
GI50 (NCI/ADR-RES ovarian): 2.88 µM
TGI (NCI/ADR-RES ovarian): > 100 µM
GI50 (HCT-15 colon): 2.27 µM
TGI (HCT-15 colon): > 100 µM
GI50 (K-562 leukemia): 2.49 µM
TGI (K-562 leukemia): > 100 µM
GI50 (A549 NSCLC): 3.75 µM
TGI (A549 NSCLC): > 100 µM
GI50 (PC-3 prostate): 1.79 µM
TGI (PC-3 prostate): > 100 µM
GI50 (HCC-2998 colon): 4.05 µM
TGI (HCC-2998 colon): > 100 µM
GI50 (NCI-H460 lung): 2.95 µM
TGI (NCI-H460 lung): > 100 µM
GI50 (NCI-H226 lung): 4.75 µM
TGI (NCI-H226 lung): > 100 µM
GI50 (SW-620 colon): 3.44 µM
TGI (SW-620 colon): > 100 µM
GI50 (MCF7 breast): 2.69 µM
TGI (MCF7 breast): > 100 µM
GI50 (KM12 colon): 2.78 µM
TGI (KM12 colon): 75 µM
GI50 (HCT-116 colon): 2.15 µM
TGI (HCT-116 colon): > 100 µM

Source: PubChem BioAssay (NCI)
